Key:
[1] = system: Phosphorylation of ERK1/2 in AsPC-1 cells; test: Phospho-ERK1/2 MSD Assay; type: cell-based, human; settings: Homo sapiens, ASPC1, 2 h, read-out: 2 h p-ERK (AsPC-1 cells), IC50
How it was run: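 Read-out: MSD electrochemiluminescent detection of phosphorylated ERK1/2 in whole-cell lysates, fitted to a 4-parameter logistic curve for IC50. Prior to lysis, AsPC-1 cells (25,000 per well) received a 2 h compound dose-response at 37 °C.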

[2] = system: MIA PaCa-2 cells; test: MIA PaCa-2 CTG Assay (CellTiter-Glo cell viability); type: cell-based, human; settings: Homo sapiens; Mia PaCa-2, 72 h; second value of the cell; read-out: G12D/C/V Cell Proliferation CTG (72 h) Mia PaCa-2
How it was run: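 Human pancreatic carcinoma cells in RPMI 1640 with 10% FBS, seeded at 1.67E+04 cells/mL and left overnight, were treated with serially diluted compound for 72 h at 37° C, 5% CO2. Viability was read by CellTiter-Glo luminescence normalized to DMSO; IC50 came from a 4-parameter logistic fit.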

[3] = system: AsPC-1 cells; test: AsPC-1 CTG Assay (CellTiter-Glo cell viability); type: cell-based, human; settings: Homo sapiens, ASPC1, 72 h, AsPC-1, 72 h; first value of the cell; read-out: G12D/C/V Cell Proliferation CTG (72 h) AsPC-1
How it was run: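 Human pancreatic AsPC-1 or colon SW620 cells in RPMI 1640 with 10% FBS, seeded overnight, then exposed to serially diluted compound for 72 h at 37 °C. CellTiter-Glo luminescence normalized to DMSO control; IC50 from a 4-parameter logistic model.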

[4] = system: SW620 cells; test: SW620 CTG Assay (CellTiter-Glo cell viability); type: cell-based, human; settings: Homo sapiens, SW-620; SW620, 72 h; third value of the cell; read-out: G12D/C/V Cell Proliferation CTG (72 h) SW620
Procedure: AsPC-1 and SW620 CTG Assay Protocols
AsPC-1 (human pancreatic adenocarcinoma; ATCC CRL-1682) or SW620 (human colon adenocarcinoma; ATCC CCL-227) cells were cultured in RPMI 1640 medium containing 10% fetal bovine serum and 1× penicillin/streptomycin/L-glutamine. Cells were seeded in 384-well plates at a density of 3.33E+04 cells/mL and incubated at 37° C., 5% CO2, overnight. Serially-diluted compound or DMSO was added to the cells, and plates were incubated at 37° C., 5% CO2 for 72 h. Cell viability was measured using a CellTiter-Glo® Luminescent Cell Viability Assay kit (Promega) according to the manufacturer's protocol. The luminescence signal of treated samples was normalized to DMSO control, and data were analyzed using a 4-parameter logistic model to calculate IC50 values.

[5] = target: His-tagged KRAS G12D protein (Homo sapiens (Human), UniProt P01116, G12D); test: KRAS G12D TR-FRET Assay; type: binding; settings: read-out: KRAS G12D Binding IC50
How it was run: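 His-tagged KRAS G12D (diluted to 20 nM in pH 7.4 HEPES buffer with 10 mM MgCl2 and 10 μM GDP) was preincubated with titrated compound for 30 min at room temperature. Biotinylated KRPep-2d peptide (diluted to 20 nM) was then added for 1 h, and displacement was monitored by TR-FRET.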

[6] = target: GDP-bound KRAS protein (aa 1-169), containing both G12D and C118A amino acid substitutions (Homo sapiens (Human), UniProt P01116, C118A/G12D); test: KRAS G12D Coupled Nucleotide Exchange Assay; type: biochemical; settings: read-out: KRAS G12D Coupled Exchange IC50
Chain of GDP-bound KRAS protein (aa 1-169), containing both G12D and C118A amino acid substitutions (P01116 other isoform, or with tags, fused parts or gaps G12D/C118A): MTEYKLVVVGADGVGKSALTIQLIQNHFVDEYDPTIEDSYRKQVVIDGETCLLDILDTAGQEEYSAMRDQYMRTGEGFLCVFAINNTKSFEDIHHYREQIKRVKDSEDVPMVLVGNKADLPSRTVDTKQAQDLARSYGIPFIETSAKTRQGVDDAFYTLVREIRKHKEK

Chain of His-tagged KRAS G12D protein (P01116 other isoform, or with tags, fused parts or gaps G12D): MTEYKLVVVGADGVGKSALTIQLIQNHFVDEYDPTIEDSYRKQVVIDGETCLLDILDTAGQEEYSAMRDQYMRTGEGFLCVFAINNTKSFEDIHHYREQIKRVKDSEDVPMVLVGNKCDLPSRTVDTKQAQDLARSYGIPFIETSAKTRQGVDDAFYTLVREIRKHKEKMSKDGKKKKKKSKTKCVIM

IC50 [1] | IC50 [2] | IC50 [3] | IC50 [4] | IC50 [5] | IC50 [6] | Compound
6 nM | 31 nM | 67 nM | 50 nM |  |  | CN(C)CC1(COc2nc3c4cnc(c(F)c4n2)-c2c(c(Cl)cc4[nH]ncc24)CCCOC(=O)O[C@@H]2COCCN3C2)CC1 [Example 195, (26S)-18-chloro-4-((1-((dimethylamino)methyl)cyclopropyl)methoxy)-32-fluoro-23,25,28-trioxa-1,3,5,9,14,15-hexaazahexacyclo[24.4.1.1~6,10~.0~2,7~.0~11,19~.0~12,16~]dotriaconta-2,4,6,8,10(32),11,13,16,18-nonaen-24-one]
49.3 nM | 50 nM | 164 nM | 44 nM | 8 nM | 4 nM | Cc1cc2[nH]ncc2c2c1CCCOC(=O)O[C@]1(C)COCCN(C1)c1nc(OC[C@@H]3CCCN3C)nc3c(F)c-2ncc13 [Example 183, (26S)-32-fluoro-18,26-dimethyl-4-(((2S)-1-methyl-2-pyrrolidinyl)methoxy)-23,25,28-trioxa-1,3,5,9,14,15-hexaazahexacyclo[24.4.1.1~6,10~.0~2,7~.0~11,19~.0~12,16~]dotriaconta-2,4,6,8,10(32),11,13,16,18-nonaen-24-one]
8.1 nM | 16 nM | 108 nM | 14 nM | 2 nM | 1 nM | O=C1OCCCc2c(Cl)cc3[nH]ncc3c2-c2ncc3c(nc(OCC45CCCN4CCC5)nc3c2F)N2CCOC[C@H](C2)O1 [Example 198, (26S)-18-chloro-32-fluoro-4-(tetrahydro-1H-pyrrolo[1,2-a]pyrrol-7a(5H)-ylmethoxy)-23,25,28-trioxa-1,3,5,9,14,15-hexaazahexacyclo[24.4.1.1~6,10~.0~2,7~.0~11,19~.0~12,16~]dotriaconta-2,4,6,8,10(32),11,13,16,18-nonaen-24-one]
10 nM | 60 nM | 60 nM | 27.4 nM | 3 nM | 1 nM | O=C1OCCCc2c(Cl)cc3[nH]ncc3c2-c2ncc3c(nc(OC[C@@]45CCCN4C[C@H](F)C5)nc3c2F)N2CCC[C@H](C2)O1 [Example 115]
47 nM |  | 420 nM | 96.7 nM | 4 nM | 2 nM | Fc1c2ncc3c(nc(OC[C@@]45CCCN4C[C@H](F)C5)nc13)N1CCOC[C@@H](COCCCCc3c(Cl)cc4[nH]ncc4c3-2)C1 (single isomer, unassigned) [Example 137]
16.8 nM |  | 114 nM | 66 nM | 4 nM | 2 nM | Cc1cc2[nH]ncc2c2c1CCOC(=O)O[C@H]1C[C@]3(CCCN(C3)c3nc(OC[C@@H]4CCCN4C)nc4c(F)c-2ncc34)C1 (single isomer, unassigned) [Example 326]
12 nM |  | 31 nM | 49 nM | 3 nM | 3 nM | O=C1OCCCc2c(Cl)cc3[nH]ncc3c2-c2ncc3c(nc(OC[C@@]45CCCN4C[C@H](F)C5)nc3c2F)N2CCC[C@](CF)(C2)O1 [Example 336, (17R)-9-chloro-30-fluoro-17-(fluoromethyl)-24-(((2R,7aS)-2-fluorotetrahydro-1H-pyrrolo[1,2-a]pyrrol-7a(5H)-yl)methoxy)-14,16-dioxa-5,6,21,23,25,29-hexaazahexacyclo[24.3.1.1~17,21~.0~2,10~.0~3,7~.0~22,27~]hentriaconta-1(30),2,4,7,9,22,24,26,28-nonaen-15-one]
15.7 nM |  | 46 nM | 22 nM | 4 nM | 3 nM | Fc1c2ncc3c(nc(OC[C@@]45CCCN4C[C@H](F)C5)nc13)N1CCOC[C@H](C1)OC(=S)OCCCc1c(Cl)cc3[nH]ncc3c1-2 [Example 199, (26S)-18-chloro-32-fluoro-4-(((2R,7aS)-2-fluorotetrahydro-1H-pyrrolo[1,2-a]pyrrol-7a(5H)-yl)methoxy)-23,25,28-trioxa-1,3,5,9,14,15-hexaazahexacyclo[24.4.1.1~6,10~.0~2,7~.0~11,19~.0~12,16~]dotriaconta-2,4,6,8,10(32),11,13,16,18-nonaene-24-thione]
48 nM |  | 360 nM | 137 nM | 5 nM | 3 nM | O=C1OCCCc2c(F)cc3[nH]ncc3c2-c2ncc3c(nc(OC[C@@]45CCCN4C[C@H](F)C5)nc3c2F)N2CCC[C@H](C2)O1 [Example 112]

More lines, now with the values behind:

Compound | IC50 [1] | IC50 [2] | IC50 [3] | IC50 [4] | IC50 [5] | IC50 [6]
C[C@@]12CCCN(C1)c1nc(OC[C@@]34CCCN3C[C@H](F)C4)nc3c(F)c(ncc13)-c1cc(O)cc3ccc(F)c(c13)CCCC(=O)N2 [Example 4, (15R)-22,31-Difluoro-8-(((2R,7aS)-2-fluorotetrahydro-1H-pyrrolo[1,2-a]pyrrol-7a(5H)-yl)methoxy)-27-hydroxy-15-methyl-3,7,9,11,16-pentaazahexacyclo[19.7.1.1˜2,6˜.1˜11,15˜.0˜5,10˜.0˜25,29˜]hentriaconta-1(28),2(31),3,5,7,9,21,23,25(29),26-decaen-17-one bis(2,2,2-trifluoroacetate)] | 3 nM | 5 nM | 14 nM | 7 nM | 4 nM | 2 nM
Cc1c2ncc3c(nc(OC[C@@]45CCCN4C[C@H](F)C5)nc13)N1CCC[C@](C)(C1)NC(=O)CCCc1c(F)ccc3cc(O)cc-2c13 [Example 18, (15R)-22-Fluoro-8-(((2R,7aS)-2-fluorotetrahydro-1H-pyrrolo[1,2-a]pyrrol-7a(5H)-yl)methoxy)-27-hydroxy-15,31-dimethyl-3,7,9,11,16-pentaazahexacyclo[19.7.1.1˜2,6˜.1˜11,15˜.0˜5,10˜.0˜25,29˜]hentriaconta-1(28),2(31),3,5,7,9,21,23,25(29),26-decaen-17-one] | 12 nM | 29 nM | 82 nM | 32 nM | 6 nM | 3 nM
Fc1c2ncc3c(nc(OC[C@@]45CCCN4C[C@H](F)C5)nc13)N1CCCC(C1)c1cnn(n1)C/C=C/c1c(Cl)cc3[nH]ncc3c1-2 (some centres unmarked) [Example 149] | 33 nM |  | 470 nM | 154 nM | 60 nM | 34 nM
O=C1CCCCc2c(Cl)cc3[nH]ncc3c2-c2ncc3c(nc(OC[C@@]45CCCN4C[C@H](F)C5)nc3c2F)N2CC[C@H]3CCN1[C@H]3C2 [Example 62, (28S,32R)-18-chloro-33-fluoro-4-(((2R,7aS)-2-fluorotetrahydro-1H-pyrrolo[1,2-a]pyrrol-7a(5H)-yl)methoxy)-1,3,5,9,14,15,25-heptaazaheptacyclo[23.5.2.1~6,10~.0~2,7~.0~11,19~.0~12,16~.0~28,32~]tritriaconta-2,4,6,8,10(33),11,13,16,18-nonaen-24-one] | 4 nM |  | 70 nM | 10 nM | 3 nM | 2 nM
Fc1c2ncc3c(nc(OC[C@@]45CCCN4C[C@H](F)C5)nc13)N1CCCC(C1)c1cnn(n1)CCCc1c(Cl)cc3[nH]ncc3c1-2 (some centres unmarked) [Example 148] | 42 nM |  | 460 nM | 165 nM | 7 nM | 5 nM
Cc1cc2[nH]ncc2c2c1CCCCC(=O)O[C@@H]1CCCN(C1)c1nc(OC[C@@]34CCCN3C[C@H](F)C4)nc3c(F)c-2ncc13 [Example 31, (17R)-30-Fluoro-24-(((2R,7aS)-2-fluorotetrahydro-1H-pyrrolo[1,2-a]pyrrol-7a(5H)-yl)methoxy)-9-methyl-16-oxa-5,6,21,23,25,29-hexaazahexacyclo[24.3.1.1˜17,21.0˜2,10˜.0˜3,7˜.0˜22,27˜]hentriaconta-1(30),2,4,7,9,22,24,26,28-nonaen-15-one bis(2,2,2-trifluoroacetate)] | 33 nM | 170 nM |  | 133 nM |  | 
